Measured values reported in patent publication US11058737B2, “Use of Euycoma longifolia extract in alleviating symptoms and/or conditions associated with hormonal imbalance in females” ([…] BERHAD, priority 2018, dated 2021).

Legend:
Format in all cases: in vivo, Sprague Dawley rats
[1] = test system: ovariectomized rat model; assay: Uterus weight at necropsy; conditions: ovariectomized rats, 10 mg/kg intramuscular once every 4 weeks
Description: (§1) 48 female Sprague dawley rats were ovariectomized or sham operated. Both sham and ovariectomized rats (n=8) received the vehicle. The remaining 3 group ovariectomized rats were orally administrated with Eurycoma longifolia aqueous extract 100 mg/kg, 300 mg/kg and 500 mg/kg b.w. The treatment continued for 8 weeks. Group 6 ovariectomized rats received testosterone undecanoate (10 mg/kg b.w) through the route of intramuscular injection once in every 4 weeks for 8 weeks. At week 8 of the last dose, sexual behaviors were recorded. Blood was collected for biochemical analysis. Calcium, phosphate, bone alkaline phosphatase (ALP), osteocalcin and hormone profile estimation was done. […]
(§2) In Group 2, only ovariectomy was performed. […] 30 gms feed was added daily to each animal in the morning time and leftover feed was recorded on next day from the same animal cage. […]

[2] = test system: ovariectomized rat model; assay: Reproductive hormone levels in rat serum (FSH, LH, progesterone, estrogen, testosterone; CLIA); conditions: ovariectomized rats, 10 mg/kg intramuscular once every 4 weeks, 8 weeks
Description: (§3) The test item, i.e. aqueous extract of Eurycoma longifolia, was studied for its capabilities or effect in relation to the alleviation or treatment of menopause symptoms and hormonal activity against ovariectomized rat model in vivo.
(§4) 48 female Sprague dawley rats were ovariectomized or sham operated. Both sham and ovariectomized rats (n=8) received the vehicle. The remaining 3 group ovariectomized rats were orally administrated with Eurycoma longifolia aqueous extract 100 mg/kg, 300 mg/kg and 500 mg/kg b.w. The treatment continued for 8 weeks. Group 6 ovariectomized rats received testosterone undecanoate (10 mg/kg b.w) through the route of intramuscular injection once in every 4 weeks for 8 weeks. At week 8 of the last dose, sexual behaviors were recorded. Blood was collected for biochemical analysis. Calcium, phosphate, bone alkaline phosphatase (ALP), osteocalcin and hormone profile estimation was done.
(§5) Test System • Animal species: Rats • Strain: Sprague Dawley • Justification for Selection of Species: Recommended and Justified by sponsor • Sex: Female • Age: 10-12 weeks (Mohamed et al, 2016) • Source of supply: In house breed • No. of groups: 6 • Group 1: Sham operated group (surgically opened but no ovariectomy) • Group 2: Ovariectomy group (Negative control) • Group 3: Ovariectomy+Low dose extract • Group 4: Ovariectomy+Middle dose extract • Group 5: Ovariectomy+High dose extract • Group 6: Ovariectomy+Testosterone undecanoate (Positive control) • No. of Animals/Group: 8 females/group • Age at Treatment: 12 weeks • Body Weight Range at Receipt: 120-250 gms • Animal Identification: Each animal will be marked by picric acid and numbering will be given individually to each animal. • Acclimatization: The rats were acclimatized for 1 week before treatment.
(§6) In Group 2, only ovariectomy was performed. Group 3, Group 4 and Group 5 received the Eurycoma longifolia aqueous extract daily at low dose (100 mg/kg), middle dose (300 mg/kg) and high dose (500 mg/kg) at respective concentrations orally for 8 weeks, whereas Group 6 received Testosterone undecanoate (10 mg/kg) intramuscular injection once in every 4 weeks for 8 weeks. • (i) Surgical Procedure • Anesthesia was induced by intraperitoneal injection of ketamine HCL (80 mg/kg) and the depth of anesthesia was checked by monitoring respiratory rate or simply testing the animal response to gentle pressure on the hind paws. After the onset of anesthesia, animal was placed under operating area. Clippers were used to clip the skin and shaved fur bilaterally to expose skin. The procedure was carried out by making two incisions to separately reach each ovary. Shaved skin was swab with 70% (v/v) ethanol. Anaesthetized animal was placed on the operating table with its back exposed and its tail towards the operator. A single dorsal incision (1 cm) was made penetrating the skin using small scissors. Incision was made in the lower back, directly below the bottom of the rib cage. Gently subcutaneous connective tissue was made free from the underlying muscle on each side using blunt forceps. Ovary was located under the thin muscle layer and a small incision (less than 1 cm) was made on each side to gain entry to the peritoneal cavity. The edge of the incision was holded securely with tooth forceps and the ovarian fat pad was retracted surrounding ovaries with blunt forceps to expose oviduct. […] 30 gms feed was added daily to each animal in the morning time and leftover feed was recorded on next day from the same animal cage. […]

[3] = Body weight of ovariectomized rats; conditions: 10 mg/kg intramuscular once every 4 weeks
Description: as §4, §5
as §6, with “oviduct. Ovary was removed by gently severing the oviduct, using sterile, small scissors. Uterus was replaced and remaining part of the oviduct back into the abdominal cavity. Muscle layer was sutured and procedure was repeated for the other ovary.” for “oviduct.”

[4] = test system: ovariectomized rats; assay: Clinical signs of toxicity and mortality in ovariectomized rat model; conditions: 10 mg/kg intramuscular once every 4 weeks, 8 weeks
Description: as §1, §2

[5] = test system: ovariectomized rat model; assay: Biochemical estimations: serum calcium, phosphate, bone alkaline phosphatase, osteocalcin; conditions: ovariectomized rats
Description: as §3, §4, §5, §6

[6] = serum, 10 mg/kg intramuscular once every 4 weeks, 8 weeks, 10 mg/kg

## CCCCCCCCCCC(=O)O[C@H]1CC[C@H]2[C@@H]3CCC4=CC(=O)CC[C@]4(C)[C@H]3CC[C@]12C [Testosterone undecanoate]
[1]
  uterus weight, effect after ovariectomy: prevented the ovariectomy induced loss of uterus weight
[1]; 8 weeks, 10 mg/kg
  UTERUS WEIGHT: 389.74 ± 8.26 mg
[2]
  Estrogen: 12.35 ± 0.25 pg/mL
  FSH: 3.96±0.22 mlU/ml
  LH: 3.76±0.11 mlU/ml
  Progesterone: 3.31 ± 0.15 ng/mL
  Testosterone: 13.01 ± 0.41 ng/mL
[3]; Basal
  Body Weight: 185.0 ± 3.35
[3]; Week 1
  Body Weight: 196.0 ± 3.17
[3]; Week 2
  Body Weight: 207.4 ± 2.99
[3]; Week 3
  Body Weight: 217.8 ± 3.31
[3]; Week 4
  Body Weight: 229.4 ± 3.24
[3]; Week 5
  Body Weight: 238.6 ± 3.33
[3]; Week 6
  Body Weight: 244.8 ± 3.53
[3]; Week 7
  Body Weight: 252.9 ± 4.37
[3]; Week 8
  Body Weight: 259.3 ± 4.85
[3]; from basal to Week 1
  Percentage of Weight Gain: 5.95%
[3]; from basal to Week 2
  Percentage of Weight Gain: 12.11%
[3]; from basal to Week 3
  Percentage of Weight Gain: 17.73%
[3]; from basal to Week 4
  Percentage of Weight Gain: 24.00%
[3]; from basal to Week 5
  Percentage of Weight Gain: 28.97%
[3]; from basal to Week 6
  Percentage of Weight Gain: 32.32%
[3]; from basal to Week 7
  Percentage of Weight Gain: 36.70%
[3]; from basal to Week 8
  Percentage of Weight Gain: 40.16%
[4]
  No. of Mortality/No. of Animals Dosed: 0/8
[5]; positive control 10 mg/kg intramuscular, no significant changes
  serum osteocalcin levels, change: Decreased serum osteocalcin levels
[5]; serum, 10 mg/kg intramuscular once every 4 weeks, 8 weeks
  Osteocalcin: 7.26 ± 0.20 ng/mL
[5]; [6]
  Bone Alkaline phosphatase: 3.06 ± 0.12 ng/mL
  Calcium: 8.48 ± 0.16 mg/dL
  Phosphate: 3.29 ± 0.13 mg/dL
